Consider seven compounds from patent publication US9340590B2 (priority 2011, dated 2016).

Where two headings read alike, the source gives them in different places. Positions of bridges follow the written chain, without caps; N, C: chain ends. Non-standard residues stand in square brackets, D forms with d. Residues, ends and D or L forms follow the SMILES beside them. Arg(Me2s) = CN=C(NC)NCCC[C@H](N)C(=O)O; 1Nal = N[C@@H](Cc1cccc2ccccc12)C(=O)O A value given as a limit tells only on which side of the number the result lay.

Holding throughout (assay): cell-based
Assay [1] has as its target hNav1.5 (Homo sapiens, UniProt Q14524).
For assay [2], the target named is hNav1.3 (Homo sapiens, UniProt Q9NY46). Particulars: IonWorks Quattro, read-out: IWQ Use Nav1.3. A general note: The patch-clamp technique gives a direct electrical read-out from membranes.
The target in assay [3] is hNav1.7 (Homo sapiens, UniProt Q15858). The format is cell-based. Particulars: IonWorks Quattro, read-out: IWQ Use Nav1.7.
Where [4] appears, read: IonWorks Quattro, use-dependent block, hNav1.5, read-out: IWQ Use Nav1.5.
The mark [5] stands for this setting: clamped to −110 mV, depolarized to −10 mV, 5 min after compound, n=2.

hNav1.5, sequence (Q14524 whole entry, looked up): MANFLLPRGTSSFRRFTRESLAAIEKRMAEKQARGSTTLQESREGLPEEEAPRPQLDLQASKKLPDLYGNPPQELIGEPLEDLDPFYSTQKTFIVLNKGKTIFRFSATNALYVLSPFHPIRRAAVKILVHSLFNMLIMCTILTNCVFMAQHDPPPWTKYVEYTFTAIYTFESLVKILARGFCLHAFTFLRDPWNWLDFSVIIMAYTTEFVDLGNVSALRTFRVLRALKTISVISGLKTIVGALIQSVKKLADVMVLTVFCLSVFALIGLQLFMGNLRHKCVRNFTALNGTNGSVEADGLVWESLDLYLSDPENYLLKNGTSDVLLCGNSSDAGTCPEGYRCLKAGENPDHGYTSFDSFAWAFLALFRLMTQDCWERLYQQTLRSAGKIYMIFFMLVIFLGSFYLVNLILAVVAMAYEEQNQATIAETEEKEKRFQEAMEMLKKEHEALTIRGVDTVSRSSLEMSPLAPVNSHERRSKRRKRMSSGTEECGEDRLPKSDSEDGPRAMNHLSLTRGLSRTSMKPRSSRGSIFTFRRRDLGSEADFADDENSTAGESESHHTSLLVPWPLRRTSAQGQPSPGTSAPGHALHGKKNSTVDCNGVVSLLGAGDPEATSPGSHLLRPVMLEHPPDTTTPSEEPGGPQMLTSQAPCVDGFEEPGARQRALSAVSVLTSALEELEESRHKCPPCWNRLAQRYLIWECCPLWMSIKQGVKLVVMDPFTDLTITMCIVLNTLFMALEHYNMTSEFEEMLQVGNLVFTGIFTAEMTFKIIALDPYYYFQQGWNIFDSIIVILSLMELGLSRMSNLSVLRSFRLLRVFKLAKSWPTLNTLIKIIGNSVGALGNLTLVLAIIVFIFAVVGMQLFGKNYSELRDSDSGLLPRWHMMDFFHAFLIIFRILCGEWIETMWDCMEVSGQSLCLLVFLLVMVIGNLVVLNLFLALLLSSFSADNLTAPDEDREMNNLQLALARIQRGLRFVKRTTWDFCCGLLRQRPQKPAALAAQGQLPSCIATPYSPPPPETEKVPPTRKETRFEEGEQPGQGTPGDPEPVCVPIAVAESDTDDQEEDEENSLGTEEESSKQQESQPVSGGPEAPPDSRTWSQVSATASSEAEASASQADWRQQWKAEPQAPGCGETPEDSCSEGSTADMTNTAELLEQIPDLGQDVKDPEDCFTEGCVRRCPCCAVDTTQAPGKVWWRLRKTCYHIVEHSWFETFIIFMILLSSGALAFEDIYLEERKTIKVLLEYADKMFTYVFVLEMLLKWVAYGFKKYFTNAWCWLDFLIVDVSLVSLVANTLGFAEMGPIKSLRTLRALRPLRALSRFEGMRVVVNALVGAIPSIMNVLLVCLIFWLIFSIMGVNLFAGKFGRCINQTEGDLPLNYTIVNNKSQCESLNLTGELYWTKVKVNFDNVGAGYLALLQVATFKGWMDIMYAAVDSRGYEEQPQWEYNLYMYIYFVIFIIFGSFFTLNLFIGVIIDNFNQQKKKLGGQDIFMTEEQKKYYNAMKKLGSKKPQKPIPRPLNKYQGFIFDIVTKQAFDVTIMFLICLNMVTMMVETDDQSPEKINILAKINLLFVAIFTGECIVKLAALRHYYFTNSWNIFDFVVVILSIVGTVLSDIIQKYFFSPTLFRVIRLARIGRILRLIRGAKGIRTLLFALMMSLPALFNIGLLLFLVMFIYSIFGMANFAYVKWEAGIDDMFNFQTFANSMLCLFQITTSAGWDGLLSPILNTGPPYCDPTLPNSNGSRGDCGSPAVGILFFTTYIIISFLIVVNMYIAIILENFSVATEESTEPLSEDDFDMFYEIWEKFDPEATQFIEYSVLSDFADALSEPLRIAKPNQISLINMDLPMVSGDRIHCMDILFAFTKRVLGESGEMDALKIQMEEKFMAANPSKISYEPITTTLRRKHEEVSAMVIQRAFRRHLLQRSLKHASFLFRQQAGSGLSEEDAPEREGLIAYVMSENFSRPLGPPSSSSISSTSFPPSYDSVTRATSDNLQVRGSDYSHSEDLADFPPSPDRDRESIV
hNav1.7, sequence (Q15858 whole entry, looked up): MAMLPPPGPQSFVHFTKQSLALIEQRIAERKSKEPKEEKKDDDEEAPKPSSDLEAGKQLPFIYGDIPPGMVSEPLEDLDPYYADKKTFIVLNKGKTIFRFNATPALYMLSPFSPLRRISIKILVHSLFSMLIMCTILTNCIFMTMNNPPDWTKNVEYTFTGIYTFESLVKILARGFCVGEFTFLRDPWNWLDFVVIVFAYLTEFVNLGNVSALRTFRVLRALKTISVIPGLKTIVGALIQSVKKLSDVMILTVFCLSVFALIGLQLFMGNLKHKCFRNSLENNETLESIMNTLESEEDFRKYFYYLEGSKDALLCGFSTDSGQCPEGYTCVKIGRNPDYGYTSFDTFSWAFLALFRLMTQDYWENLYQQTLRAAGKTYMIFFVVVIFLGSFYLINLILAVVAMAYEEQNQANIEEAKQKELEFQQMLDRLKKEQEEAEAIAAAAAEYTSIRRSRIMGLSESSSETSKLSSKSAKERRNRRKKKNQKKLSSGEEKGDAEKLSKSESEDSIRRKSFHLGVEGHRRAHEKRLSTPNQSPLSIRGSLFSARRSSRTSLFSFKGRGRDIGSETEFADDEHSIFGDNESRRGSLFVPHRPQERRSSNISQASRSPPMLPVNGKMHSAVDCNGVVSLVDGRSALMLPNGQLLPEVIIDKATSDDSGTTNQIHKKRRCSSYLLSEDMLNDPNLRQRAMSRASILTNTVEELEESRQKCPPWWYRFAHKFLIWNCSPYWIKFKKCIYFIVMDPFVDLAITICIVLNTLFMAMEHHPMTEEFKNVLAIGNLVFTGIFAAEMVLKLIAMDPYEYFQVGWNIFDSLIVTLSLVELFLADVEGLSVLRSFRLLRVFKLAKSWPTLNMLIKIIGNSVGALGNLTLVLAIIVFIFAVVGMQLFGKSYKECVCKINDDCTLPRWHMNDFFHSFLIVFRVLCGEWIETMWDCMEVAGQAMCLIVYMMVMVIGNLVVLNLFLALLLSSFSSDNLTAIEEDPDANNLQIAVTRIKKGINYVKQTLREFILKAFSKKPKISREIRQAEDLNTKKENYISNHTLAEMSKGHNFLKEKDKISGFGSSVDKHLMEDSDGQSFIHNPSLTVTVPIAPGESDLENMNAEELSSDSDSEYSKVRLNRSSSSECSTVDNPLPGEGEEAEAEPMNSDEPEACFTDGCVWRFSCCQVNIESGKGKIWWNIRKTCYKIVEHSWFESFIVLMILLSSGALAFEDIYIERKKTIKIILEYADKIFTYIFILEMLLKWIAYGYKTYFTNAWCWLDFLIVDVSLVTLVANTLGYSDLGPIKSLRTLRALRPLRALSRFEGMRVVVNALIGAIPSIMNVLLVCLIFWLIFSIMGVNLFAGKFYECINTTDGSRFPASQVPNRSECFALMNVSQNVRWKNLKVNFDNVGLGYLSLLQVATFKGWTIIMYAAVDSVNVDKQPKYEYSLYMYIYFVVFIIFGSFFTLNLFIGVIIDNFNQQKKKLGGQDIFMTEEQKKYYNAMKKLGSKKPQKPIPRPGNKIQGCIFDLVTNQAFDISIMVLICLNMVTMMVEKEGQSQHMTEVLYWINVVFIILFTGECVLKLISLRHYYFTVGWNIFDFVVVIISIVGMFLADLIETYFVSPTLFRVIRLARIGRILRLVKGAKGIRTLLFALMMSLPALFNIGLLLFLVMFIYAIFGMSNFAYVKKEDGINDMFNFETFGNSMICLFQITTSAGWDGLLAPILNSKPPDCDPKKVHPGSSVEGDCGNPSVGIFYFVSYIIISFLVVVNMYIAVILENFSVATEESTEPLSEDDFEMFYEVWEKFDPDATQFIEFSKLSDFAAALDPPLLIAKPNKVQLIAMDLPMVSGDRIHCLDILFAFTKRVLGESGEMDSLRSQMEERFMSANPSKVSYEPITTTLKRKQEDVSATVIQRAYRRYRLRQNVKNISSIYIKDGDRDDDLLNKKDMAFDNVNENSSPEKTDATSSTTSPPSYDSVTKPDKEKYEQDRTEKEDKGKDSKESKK

Take `CC[C@H](C)[C@@H]1NC(=O)[C@@H]2CSSC[C@@H]3NC(=O)[C@H](C(C)C)NC(=O)[C@H](CC(C)C)NC(=O)[C@H](CC(N)=O)NC(=O)[C@@H]4CCCN4C(=O)[C@H](CCCNC(=N)N)NC(=O)[C@H](CSSC[C@H](NC(=O)[C@@H](N)CC(=O)O)C(=O)N[C@@H](CC(C)C)C(=O)NCC(=O)N[C@@H](Cc4ccccc4)C(=O)N[C@@H](CCSC)C(=O)N[C@@H](CCCNC(=N)N)C(=O)N[C@@H](CCCCN)C(=O)N2)NC(=O)[C@H](CSSC[C@@H](C(=O)N[C@@H](CCCCN)C(=O)N[C@@H](Cc2ccc(O)cc2)C(=O)N[C@@H](Cc2cccc4ccccc24)C(=O)N[C@@H](Cc2ccccc2)C(N)=O)NC(=O)[C@H](Cc2c[nH]c4ccccc24)NC(=O)[C@H](CCCCN)NC(=O)[C@H](Cc2cnc[nH]2)NC(=O)[C@H]([C@@H](C)O)NC(=O)[C@H](CCCNC(=N)N)NC(=O)[C@H](CO)NC3=O)NC(=O)[C@H](CCCCN)NC(=O)[C@H](CC(=O)O)NC(=O)[C@H](CC(N)=O)NC(=O)[C@H](CC(=O)O)NC(=O)[C@@H]2CCCN2C1=O` [compound 168] (H-DCLGFMRKCIPDNDKCCRPNLVCSRTHKWCKY[1Nal]F-NH2; disulfide 2-17, 9-23, 16-30): the IC50 in assay [1] (IWQ Use Nav1.5 (μM)) was determined as 15.7 µM; in assay [2] (Table 26, use, […]), 0.02 µM; in assay [3] (Table 26, use, […]) it was 0.06 µM.
Turning to `CC[C@H](C)[C@@H]1NC(=O)[C@@H]2CSSC[C@@H]3NC(=O)[C@H](C(C)C)NC(=O)[C@H](CC(C)C)NC(=O)[C@H](CC(N)=O)NC(=O)[C@@H]4CCCN4C(=O)[C@H](CCCNC(=N)N)NC(=O)[C@H](CSSC[C@H](NC(=O)[C@@H](N)CC(=O)O)C(=O)N[C@@H](CC(C)C)C(=O)NCC(=O)N[C@@H](C)C(=O)N[C@@H](CC(C)C)C(=O)N[C@@H](CCCNC(=N)N)C(=O)N[C@@H](CCCCN)C(=O)N2)NC(=O)[C@H](CSSC[C@@H](C(=O)N[C@@H](CCCCN)C(=O)N[C@@H](Cc2ccc(O)cc2)C(=O)N[C@H](C(=O)N[C@@H](Cc2ccccc2)C(=O)O)C(C)C)NC(=O)[C@H](Cc2c[nH]c4ccccc24)NC(=O)[C@H](CC(=O)O)NC(=O)[C@H](Cc2c[nH]cn2)NC(=O)[C@H]([C@@H](C)O)NC(=O)[C@H](CCCNC(=N)N)NC(=O)[C@H](CO)NC3=O)NC(=O)[C@H](CCCCN)NC(=O)[C@H](CC(=O)O)NC(=O)[C@H](CC(N)=O)NC(=O)[C@H](CC(=O)O)NC(=O)[C@@H]2CCCN2C1=O` [compound 854] (H-DCLGALRKCIPDNDKCCRPNLVCSRTHDWCKYVF-OH; disulfide 2-17, 9-23, 16-30), the IC50 is greater than 5 µM in assay [1] (setting [4]); greater than 5 µM in assay [2] (use-dependent block, hNav1.3); greater than 5 µM in assay [3] (use-dependent block, hNav1.7).
For `CSCC[C@@H]1NC(=O)[C@H](Cc2ccccc2)NC(=O)CNC(=O)[C@H](CC(C)C)NC(=O)[C@@H](NC(=O)[C@@H](N)CC(=O)O)CSSC[C@@H]2NC(=O)[C@@H]3CSSC[C@@H](C(=O)N[C@@H](CCCCN)C(=O)N[C@@H](Cc4ccc(O)cc4)C(=O)N[C@H](C(=O)N[C@@H](Cc4ccccc4)C(N)=O)C(C)C)NC(=O)[C@H](Cc4c[nH]c5ccccc45)NC(=O)[C@H](CCCCN)NC(=O)[C@H](Cc4cnc[nH]4)NC(=O)[C@H]([C@@H](C)O)NC(=O)[C@H](CCCNC(=N)N)NC(=O)[C@H](CO)NC(=O)[C@H](CSSC[C@H](NC(=O)[C@H](CCCCN)NC(=O)[C@H](CCCNC(=N)N)NC1=O)C(=O)N[C@@H](CCCCN)C(=O)N1CCC[C@H]1C(=O)N[C@@H](CC(=O)O)C(=O)N[C@@H](CC(N)=O)C(=O)N[C@@H](CC(=O)O)C(=O)N[C@@H](CCCCN)C(=O)N3)NC(=O)[C@H](C(C)C)NC(=O)[C@H](CC(C)C)NC(=O)[C@H](CC(N)=O)NC(=O)[C@@H]1CCCN1C(=O)[C@H](CCCNC(=N)N)NC2=O` [compound 41] (H-DCLGFMRKCKPDNDKCCRPNLVCSRTHKWCKYVF-NH2; disulfide 2-17, 9-23, 16-30), the IC50 in assay [1] (IonWorks Quattro, Use, read-out: IWQ Use Nav1.5) turned out to be 9 µM; in assay [2] (Use), 0.15 µM; in assay [3] (Use), 0.24 µM.
As for `CC[C@H](C)[C@@H]1NC(=O)[C@@H]2CSSC[C@@H]3NC(=O)[C@H](C(C)C)NC(=O)[C@H](CC(C)C)NC(=O)[C@H](CC(N)=O)NC(=O)[C@@H]4CCCN4C(=O)[C@H](CCCNC(=N)N)NC(=O)[C@H](CSSC[C@H](NC(=O)[C@@H](N)CC(=O)O)C(=O)N[C@@H](CC(C)C)C(=O)NCC(=O)N[C@@H](C)C(=O)N[C@@H](CCSC)C(=O)N[C@@H](CCCNC(=N)N)C(=O)N[C@@H](CCCCN)C(=O)N2)NC(=O)[C@H](CSSC[C@@H](C(=O)N[C@@H](CCCCN)C(=O)N[C@@H](Cc2ccc(O)cc2)C(=O)N[C@H](C(=O)N[C@@H](Cc2ccccc2)C(N)=O)C(C)C)NC(=O)[C@H](Cc2c[nH]c4ccccc24)NC(=O)[C@H](CCCNC(=NC)NC)NC(=O)[C@H](Cc2c[nH]cn2)NC(=O)[C@H]([C@@H](C)O)NC(=O)[C@H](CCCNC(=N)N)NC(=O)[C@H](CO)NC3=O)NC(=O)[C@H](CCCCN)NC(=O)[C@H](CC(=O)O)NC(=O)[C@H](CC(N)=O)NC(=O)[C@H](CC(=O)O)NC(=O)[C@@H]2CCCN2C1=O` [compound 743] (H-DCLGAMRKCIPDNDKCCRPNLVCSRTH[Arg(Me2s)]WCKYVF-NH2; disulfide 2-17, 9-23, 16-30), the IC50 was 26.5 µM in assay [1] (setting [4]); 1.1 µM in assay [2] (use-dependent block, hNav1.3); 0.22 µM in assay [3] (use-dependent block, hNav1.7).
Consider `CC(C)C[C@@H]1NC(=O)[C@H](C)NC(=O)CNC(=O)[C@H](CC(C)C)NC(=O)[C@@H](NC(=O)[C@@H](N)CC(=O)O)CSSC[C@@H]2NC(=O)[C@@H]3CSSC[C@@H](C(=O)N[C@@H](CCCCN)C(=O)N[C@@H](Cc4ccc(O)cc4)C(=O)N[C@H](C(=O)N[C@@H](Cc4ccccc4)C(N)=O)C(C)C)NC(=O)[C@H](Cc4c[nH]c5ccccc45)NC(=O)[C@H](CCCCN)NC(=O)[C@H](Cc4c[nH]cn4)NC(=O)[C@H]([C@@H](C)O)NC(=O)[C@H](CCCNC(=N)N)NC(=O)[C@H](CO)NC(=O)[C@H](CSSC[C@H](NC(=O)[C@H](CCCCN)NC(=O)[C@H](CCCNC(=N)N)NC1=O)C(=O)N[C@@H](CCC(=O)O)C(=O)N1CCC[C@H]1C(=O)N[C@@H](CC(=O)O)C(=O)N[C@@H](CC(N)=O)C(=O)N[C@@H](CC(=O)O)C(=O)N[C@@H](CCCCN)C(=O)N3)NC(=O)[C@H](C(C)C)NC(=O)[C@H](CC(C)C)NC(=O)[C@H](CC(N)=O)NC(=O)[C@@H]1CCCN1C(=O)[C@H](CCCNC(=N)N)NC2=O` [compound 723], for which the IC50 is greater than 50 µM in assay [1] (setting [4]); 1.2 µM in assay [2] (use-dependent block, hNav1.3); 0.38 µM in assay [3] (use-dependent block, hNav1.7).
The like results for `CC[C@H](C)[C@@H]1NC(=O)[C@@H]2CSSC[C@@H]3NC(=O)[C@H](C(C)C)NC(=O)[C@H](CC(C)C)NC(=O)[C@H](CC(N)=O)NC(=O)[C@@H]4CCCN4C(=O)[C@H](CCCNC(=N)N)NC(=O)[C@H](CSSC[C@H](NC(=O)[C@@H](N)CC(=O)O)C(=O)N[C@@H](CC(C)C)C(=O)NCC(=O)N[C@@H](C)C(=O)N[C@@H](CCSC)C(=O)N[C@@H](CCCNC(=N)N)C(=O)N[C@@H](CCCCN)C(=O)N2)NC(=O)[C@H](CSSC[C@@H](C(=O)N[C@@H](CCCCN)C(=O)N[C@@H](C)C(=O)N[C@H](C(=O)N[C@@H](Cc2ccccc2)C(N)=O)C(C)C)NC(=O)[C@H](Cc2c[nH]c4ccccc24)NC(=O)[C@H](CCCCN)NC(=O)[C@H](Cc2c[nH]cn2)NC(=O)[C@H]([C@@H](C)O)NC(=O)[C@H](CCCNC(=N)N)NC(=O)[C@H](CO)NC3=O)NC(=O)[C@H](CCCCN)NC(=O)[C@H](CC(=O)O)NC(=O)[C@H](CC(N)=O)NC(=O)[C@H](CC(=O)O)NC(=O)[C@@H]2CCCN2C1=O` [compound 432] (H-DCLGAMRKCIPDNDKCCRPNLVCSRTHKWCKAVF-NH2; disulfide 2-17, 9-23, 16-30) were, in that order, greater than 5 µM, greater than 5 µM and greater than 5 µM.
In the case of `CC[C@H](C)[C@@H]1NC(=O)[C@@H]2CSSC[C@@H]3NC(=O)[C@H](C(C)C)NC(=O)[C@H](CC(C)C)NC(=O)[C@H](CC(N)=O)NC(=O)[C@@H]4CCCN4C(=O)[C@H](CCCNC(=N)N)NC(=O)[C@H](CSSC[C@H](NC(=O)[C@@H](N)CC(=O)O)C(=O)N[C@@H](CC(C)C)C(=O)NCC(=O)N[C@@H](Cc4ccccc4)C(=O)N[C@@H](Cc4c[nH]cn4)C(=O)N[C@@H](CCCNC(=N)N)C(=O)N[C@@H](CCCCN)C(=O)N2)NC(=O)[C@H](CSSC[C@@H](C(=O)N[C@@H](CCCCN)C(=O)N[C@@H](Cc2ccc(O)cc2)C(=O)N[C@H](C(=O)N[C@@H](Cc2ccccc2)C(N)=O)C(C)C)NC(=O)[C@H](Cc2c[nH]c4ccccc24)NC(=O)[C@H](CCCCN)NC(=O)[C@H](Cc2c[nH]cn2)NC(=O)[C@H]([C@@H](C)O)NC(=O)[C@H](CCCNC(=N)N)NC(=O)[C@H](CO)NC3=O)NC(=O)[C@H](CCCCN)NC(=O)[C@H](CC(=O)O)NC(=O)[C@H](CC(N)=O)NC(=O)[C@H](CC(=O)O)NC(=O)[C@@H]2CCCN2C1=O` [SEQ ID NO: 281] (H-DCLGFHRKCIPDNDKCCRPNLVCSRTHKWCKYVF-NH2; disulfide 2-17, 9-23, 16-30), the IC50 in assay [1] (IonWorks Quattro, clamped to −110 mV, depolarized to −10 mV, 5 min after compound, n=2, read-out: IWQ Use Nav1.5) was 10.1 µM; in assay [2] (setting [5]) it was 7.77 µM; in assay [3] (setting [5]) it was 4.72 µM.
